In brackets after ≈: the same amount, converted by molar mass. Activity calls are given as the source filed them. The calls are words filed in the database; no cut-off is given here.
What was measured:
[1] = Selectivity index, ratio of compound concentration showing <20 to <30% hemolysis in mouse RBC to MIC for fluconazole/ITC-resistant Candida albicans ATCC MYA-1237; assay type: toxicity; details: mouse red blood cells (RBC), read-out: Selectivity Index
[2] = Selectivity index, ratio of CC50 for human A549 cells to MIC for fluconazole/ITC-resistant Candida albicans ATCC 64124; assay type: toxicity; details: read-out: Selectivity Index
[3] = Selectivity index, ratio of compound concentration showing <20 to <30% hemolysis in mouse RBC to MIC for Aspergillus nidulans ATCC 38163; assay type: toxicity; details: mouse red blood cells (RBC), read-out: Selectivity Index
[4] = Hemolytic activity in mouse RBC at […] ug/ml after 1 hr relative to control; assay type: ADME, cell-based, Erythrocyte; details: red blood cells (erythrocytes), read-out: Activity
[5] = Selectivity index, ratio of CC50 for human A549 cells to MIC for Aspergillus terreus ATCC MYA-3633; assay type: toxicity; details: read-out: Selectivity Index
[6] = Hemolytic activity in mouse RBC at 31.3 ug/ml after 1 hr relative to control; assay type: ADME, cell-based, Erythrocyte; details: red blood cells (erythrocytes), read-out: Activity
[7] = system: Pichia kudriavzevii; assay: Antifungal activity against Candida krusei ATCC 6258 measured after 48 hrs by CLSI M27-A3 protocol based method; assay type: functional; details: ATCC 6258, 48 h
[8] = Selectivity index, ratio of compound concentration showing <20 to <30% hemolysis in mouse RBC to MIC for Candida krusei ATCC 6258; assay type: toxicity; details: mouse red blood cells (RBC), read-out: Selectivity Index
[9] = Selectivity index, ratio of compound concentration showing <20 to <30% hemolysis in mouse RBC to MIC for fluconazole/ITC-susceptible Candida albicans ATCC MYA-2310; assay type: toxicity; details: mouse red blood cells (RBC), read-out: Selectivity Index
[10] = Selectivity index, ratio of CC50 for human A549 cells to MIC for Candida parapsilosis ATCC 22019; assay type: toxicity; details: read-out: Selectivity Index
[11] = system: Candida parapsilosis; assay: Antifungal activity against Candida parapsilosis ATCC 22019 measured after 48 hrs by CLSI M27-A3 protocol based method; assay type: functional; details: Lodderomyces parapsilosis, ATCC 22019, 48 h
[12] = system: Aspergillus terreus; assay: Antifungal activity against Aspergillus terreus ATCC MYA-3633 measured after 48 hrs by CLSI M38-A2 protocol based method; assay type: functional; details: ATCC MYA-3633, 48 h
[13] = system: Candida albicans; assay: Antifungal activity against fluconazole/ITC-resistant Candida albicans ATCC 90819 measured after 48 hrs by CLSI M27-A3 protocol based method; assay type: functional; details: ATCC 90819, 48 h
[14] = Selectivity index, ratio of CC50 for human A549 cells to MIC for fluconazole/ITC-resistant Candida albicans ATCC 10231; assay type: toxicity; details: read-out: Selectivity Index
[15] = Selectivity index, ratio of CC50 for human A549 cells to MIC for Aspergillus nidulans ATCC 38163; assay type: toxicity; details: read-out: Selectivity Index
[16] = Selectivity index, ratio of compound concentration showing <20 to <30% hemolysis in mouse RBC to MIC for Aspergillus flavus ATCC MYA-3631; assay type: toxicity; details: mouse red blood cells (RBC), read-out: Selectivity Index
[17] = Selectivity index, ratio of compound concentration showing <20 to <30% hemolysis in mouse RBC to MIC for Candida glabrata ATCC 2001; assay type: toxicity; details: mouse red blood cells (RBC), read-out: Selectivity Index
[18] = system: Candida albicans; assay: Antifungal activity against fluconazole/ITC-susceptible Candida albicans ATCC MYA-2310 measured after 48 hrs by CLSI M27-A3 protocol based method; assay type: functional; details: ATCC MYA-2310, 48 h
[19] = system: Staphylococcus aureus; assay: Antibacterial activity against methicillin-resistant Staphylococcus aureus; assay type: functional, organism-based
[20] = system: Aspergillus flavus; assay: Antifungal activity against Aspergillus flavus ATCC MYA-3631 measured after 48 hrs by CLSI M38-A2 protocol based method; assay type: functional; details: ATCC MYA-3631, 48 h
[21] = Selectivity index, ratio of CC50 for human A549 cells to MIC for fluconazole/ITC-resistant Candida albicans ATCC 90819; assay type: toxicity; details: read-out: Selectivity Index
[22] = Selectivity index, ratio of CC50 for human A549 cells to MIC for Candida glabrata ATCC 2001; assay type: toxicity; details: read-out: Selectivity Index
[23] = Selectivity index, ratio of CC50 for human A549 cells to MIC for Aspergillus flavus ATCC MYA-3631; assay type: toxicity; details: read-out: Selectivity Index
[24] = Selectivity index, ratio of compound concentration showing <20 to <30% hemolysis in mouse RBC to MIC for fluconazole/ITC-resistant Candida albicans ATCC 90819; assay type: toxicity; details: red blood cells (erythrocytes), read-out: Selectivity Index
[25] = Selectivity index, ratio of compound concentration showing <20 to <30% hemolysis in mouse RBC to MIC for fluconazole/ITC-susceptible Candida albicans ATCC MYA-2876; assay type: toxicity; details: red blood cells (erythrocytes), read-out: Selectivity Index
[26] = system: Nakaseomyces glabratus; assay: Antifungal activity against Candida glabrata ATCC 2001 measured after 48 hrs by CLSI M27-A3 protocol based method; assay type: functional; details: CBS 138, 48 h
[27] = system: Aspergillus nidulans; assay: Antifungal activity against Aspergillus nidulans ATCC 38163 measured after 48 hrs by CLSI M38-A2 protocol based method; assay type: functional; details: ATCC 38163, 48 h
[28] = Selectivity index, ratio of compound concentration showing <20 to <30% hemolysis in mouse RBC to MIC for fluconazole/ITC-resistant Candida albicans ATCC 64124; assay type: toxicity; details: red blood cells (erythrocytes), read-out: Selectivity Index
[29] = Hemolytic activity in mouse RBC at 7.8 ug/ml after 1 hr relative to control; assay type: ADME, cell-based, Erythrocyte; details: red blood cells (erythrocytes), read-out: Activity
[30] = system: A549; assay: Cytotoxicity against human A549 cells after 24 hrs by resazurin based assay; assay type: cell-based; details: a549, 24 h
[31] = system: Candida albicans; assay: Antifungal activity against fluconazole/ITC-resistant Candida albicans ATCC 64124 measured after 48 hrs by CLSI M27-A3 protocol based method; assay type: functional; details: ATCC 64124, 48 h
[32] = system: Candida albicans; assay: Antifungal activity against fluconazole/ITC-resistant Candida albicans ATCC MYA-1237 measured after 48 hrs by CLSI M27-A3 protocol based method; assay type: functional; details: ATCC MYA-1237, 48 h
[33] = system: Listeria monocytogenes; assay: Antibacterial activity against Listeria monocytogenes; assay type: functional, organism-based
[34] = system: Candida albicans; assay: Antifungal activity against fluconazole/ITC-resistant Candida albicans ATCC 10231 measured after 48 hrs by CLSI M27-A3 protocol based method; assay type: functional; details: ATCC 10231, 48 h
[35] = Hemolytic activity in mouse RBC at 1.95 ug/ml after 1 hr relative to control; assay type: ADME, cell-based, Erythrocyte; details: red blood cells (erythrocytes), read-out: Activity
[36] = Hemolytic activity in mouse RBC at 3.9 ug/ml after 1 hr relative to control; assay type: ADME, cell-based, Erythrocyte; details: red blood cells (erythrocytes), read-out: Activity
[37] = Selectivity index, ratio of CC50 for human A549 cells to MIC for fluconazole/ITC-resistant Candida albicans ATCC MYA-1237; assay type: toxicity; details: read-out: Selectivity Index
[38] = Selectivity index, ratio of compound concentration showing <20 to <30% hemolysis in mouse RBC to MIC for fluconazole/ITC-resistant Candida albicans ATCC MYA-1003; assay type: toxicity; details: mouse red blood cells (RBC), read-out: Selectivity Index
[39] = Selectivity index, ratio of compound concentration showing <20 to <30% hemolysis in mouse RBC to MIC for fluconazole/ITC-resistant Candida albicans ATCC 10231; assay type: toxicity; details: red blood cells (erythrocytes), read-out: Selectivity Index
[40] = Selectivity index, ratio of compound concentration showing <20 to <30% hemolysis in mouse RBC to MIC for Aspergillus terreus ATCC MYA-3633; assay type: toxicity; details: mouse red blood cells (RBC), read-out: Selectivity Index
[41] = Hemolytic activity in mouse RBC at 62.5 ug/ml after 1 hr relative to control; assay type: ADME, cell-based, Erythrocyte; details: red blood cells (erythrocytes), read-out: Activity
[42] = Selectivity index, ratio of CC50 for human A549 cells to MIC for fluconazole/ITC-resistant Candida albicans ATCC MYA-1003; assay type: toxicity; details: read-out: Selectivity Index
[43] = target: Voltage-gated inwardly rectifying potassium channel KCNH2 (Homo sapiens, UniProt Q12809); assay: Inhibition of [3H]-dofetilide binding to human ERG expressed in HEK293 cell membranes measured after 1 hr by liquid scintillation counting method
[44] = system: Candida albicans; assay: Antifungal activity against fluconazole/ITC-resistant Candida albicans ATCC MYA-1003 measured after 48 hrs by CLSI M27-A3 protocol based method; assay type: functional; details: ATCC MYA-1003, 48 h
[45] = Hemolytic activity in mouse RBC at […] after 1 hr relative to control; assay type: ADME, cell-based, Erythrocyte; details: red blood cells (erythrocytes), read-out: Activity; further: tested at 0.48 µg/mL
[46] = system: Candida albicans; assay: Antifungal activity against fluconazole/ITC-susceptible Candida albicans ATCC MYA-2876 measured after 48 hrs by CLSI M27-A3 protocol based method; assay type: functional; details: ATCC MYA-2876, 48 h
[47] = Selectivity index, ratio of compound concentration showing <20 to <30% hemolysis in mouse RBC to MIC for Candida parapsilosis ATCC 22019; assay type: toxicity; details: mouse red blood cells (RBC), read-out: Selectivity Index
[48] = system: BEAS-2B; assay: Cytotoxicity against human BEAS2B cells after 24 hrs by resazurin based assay; assay type: cell-based
[49] = system: Enterococcus; assay: Antibacterial activity against vancomycin-resistant Enterococcus; assay type: functional, organism-based
[50] = Selectivity index, ratio of CC50 for human A549 cells to MIC for Candida krusei ATCC 6258; assay type: toxicity; details: read-out: Selectivity Index
[51] = Selectivity index, ratio of CC50 for human A549 cells to MIC for fluconazole/ITC-susceptible Candida albicans ATCC MYA-2876; assay type: toxicity; details: read-out: Selectivity Index
[52] = Selectivity index, ratio of CC50 for human A549 cells to MIC for fluconazole/ITC-susceptible Candida albicans ATCC MYA-2310; assay type: toxicity; details: read-out: Selectivity Index

Voltage-gated inwardly rectifying potassium channel KCNH2, sequence (Q12809 whole entry): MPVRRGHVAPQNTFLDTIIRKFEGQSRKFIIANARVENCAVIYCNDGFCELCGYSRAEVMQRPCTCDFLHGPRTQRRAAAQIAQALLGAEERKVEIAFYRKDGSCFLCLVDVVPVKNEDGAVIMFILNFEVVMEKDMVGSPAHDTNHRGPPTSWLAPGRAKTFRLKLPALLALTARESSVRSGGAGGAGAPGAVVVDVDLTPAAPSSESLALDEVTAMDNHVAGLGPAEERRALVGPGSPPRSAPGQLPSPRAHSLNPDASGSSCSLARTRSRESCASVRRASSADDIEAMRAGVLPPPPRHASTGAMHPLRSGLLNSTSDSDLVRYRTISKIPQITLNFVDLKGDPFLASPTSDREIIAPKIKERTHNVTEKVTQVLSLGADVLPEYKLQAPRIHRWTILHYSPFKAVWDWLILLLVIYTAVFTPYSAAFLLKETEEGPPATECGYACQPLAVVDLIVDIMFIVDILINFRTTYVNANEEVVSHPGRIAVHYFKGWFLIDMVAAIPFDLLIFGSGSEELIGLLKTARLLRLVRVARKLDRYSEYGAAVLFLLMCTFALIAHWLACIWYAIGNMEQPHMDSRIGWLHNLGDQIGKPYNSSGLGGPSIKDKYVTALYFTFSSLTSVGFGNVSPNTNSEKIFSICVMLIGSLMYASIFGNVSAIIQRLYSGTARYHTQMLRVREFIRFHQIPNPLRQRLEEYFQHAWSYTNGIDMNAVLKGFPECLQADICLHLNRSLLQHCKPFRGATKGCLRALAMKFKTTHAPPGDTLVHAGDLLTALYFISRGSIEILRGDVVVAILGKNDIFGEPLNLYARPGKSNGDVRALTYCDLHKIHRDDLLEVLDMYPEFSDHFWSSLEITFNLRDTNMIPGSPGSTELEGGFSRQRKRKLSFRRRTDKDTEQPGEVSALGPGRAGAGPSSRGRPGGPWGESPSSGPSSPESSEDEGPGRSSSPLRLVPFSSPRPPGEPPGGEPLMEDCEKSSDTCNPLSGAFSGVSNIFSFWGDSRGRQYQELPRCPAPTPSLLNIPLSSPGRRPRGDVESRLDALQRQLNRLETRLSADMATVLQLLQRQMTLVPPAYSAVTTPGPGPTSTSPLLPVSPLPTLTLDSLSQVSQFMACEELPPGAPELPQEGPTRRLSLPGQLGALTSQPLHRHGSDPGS

## COc1ccc(N/N=C/c2ccc(-c3ccc(/C=N/Nc4ccc(OC)cc4)cc3)cc2)cc1
[1]
  selectivity ratio: 1 to 32
[2]
  selectivity ratio: 8
[3]
  selectivity ratio: 1 to 32
[4]; at 15.6 µg/mL
  hemolysis at 1 h, 15.6 ug/ml: 6.7%
[4]
  hemolysis at 1 h, 0.975 ug/ml: 1.6%
[5]
  selectivity ratio: 1
[6]
  hemolysis at 1 h, 31.3 ug/ml: 12.6%
[7]
  MIC: 7.8 µg/mL (≈ 17.3 µM)
[8]
  selectivity ratio: 1 to 32
[9]
  selectivity ratio: 1 to 32
[10]
  selectivity ratio: 2
[11]
  MIC: 15.6 µg/mL (≈ 34.6 µM)
[12]
  MIC: > 31.3 µg/mL
[13]
  MIC: 7.8 µg/mL (≈ 17.3 µM)
[14]
  selectivity ratio: 4
[15]
  selectivity ratio: 4
[16]
  selectivity ratio: 1 to 32
[17]
  selectivity ratio: 1 to 32
[18]
  MIC: 3.9 µg/mL (≈ 8.66 µM)
[19]
  Activity: inactive
[20]
  MIC: > 31.3 µg/mL
[21]
  selectivity ratio: 4
[22]
  selectivity ratio: 4
[23]
  selectivity ratio: 1
[24]
  selectivity ratio: 1 to 32
[25]
  selectivity ratio: 1 to 32
[26]
  MIC: 7.8 µg/mL (≈ 17.3 µM)
[27]
  MIC: 7.8 µg/mL (≈ 17.3 µM)
[28]
  selectivity ratio: 1 to 32
[29]
  hemolysis at 1 h, 7.8 ug/ml: 4.2%
[30]
  CC50: > 31 µg/mL
[31]
  MIC: 3.9 µg/mL (≈ 8.66 µM)
[32]
  MIC: 15.6 µg/mL (≈ 34.6 µM)
[33]
  Activity: inactive
[34]
  MIC: 7.8 µg/mL (≈ 17.3 µM)
[35]
  hemolysis at 1 h, 1.95 ug/ml: 1.9%
[36]
  hemolysis at 1 h, 3.9 ug/ml: 2.8%
[37]
  selectivity ratio: 2
[38]
  selectivity ratio: 1 to 32
[39]
  selectivity ratio: 1 to 32
[40]
  selectivity ratio: 1 to 32
[41]
  hemolysis at 1 h, 62.5 ug/ml: 22.7%
[42]
  selectivity ratio: 4
[43]
  IC50: > 30 µM
[44]
  MIC: 7.8 µg/mL (≈ 17.3 µM)
[45]
  hemolysis at 1 h, […]: 1.2%
[46]
  MIC: 7.8 µg/mL (≈ 17.3 µM)
[47]
  selectivity ratio: 1 to 32
[48]
  CC50: 16.4 µg/mL (≈ 36.4 µM)
[49]
  Activity: inactive
[50]
  selectivity ratio: 4
[51]
  selectivity ratio: 4
[52]
  selectivity ratio: 8

From ChEMBL document CHEMBL4411307, “N,N'-diaryl-bishydrazones in a biphenyl platform: Broad spectrum antifungal agents” (Eur J Med Chem, 2019)
